Results from ChEMBL document CHEMBL1149372, “Discovery of novel and potent thiazoloquinazolines as selective Aurora A and B kinase inhibitors” (J Med Chem, 2006).
In brackets after ≈: the same amount, converted by molar mass.

Key:
SW-620 [1] = assay: Inhibition of phosphorylation of histone H3 in human SW620 cells; type: functional, cell-based
Aurora kinase A = target: T1, Aurora kinase A (Homo sapiens, UniProt O14965)
T1 sequence (O14965 whole entry): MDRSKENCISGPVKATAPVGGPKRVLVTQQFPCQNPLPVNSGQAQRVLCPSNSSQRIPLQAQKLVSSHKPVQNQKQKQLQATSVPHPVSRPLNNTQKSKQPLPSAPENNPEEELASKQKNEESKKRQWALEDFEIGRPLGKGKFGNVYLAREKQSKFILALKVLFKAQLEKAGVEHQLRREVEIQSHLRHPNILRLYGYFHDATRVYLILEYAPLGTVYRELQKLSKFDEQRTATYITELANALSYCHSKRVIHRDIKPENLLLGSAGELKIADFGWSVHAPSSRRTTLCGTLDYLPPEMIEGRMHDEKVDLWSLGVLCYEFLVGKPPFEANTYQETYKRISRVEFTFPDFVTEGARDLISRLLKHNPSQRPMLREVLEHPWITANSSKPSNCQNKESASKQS
Description: Inhibition of Aurora A kinase activity

[2] = Inhibition of Aurora B-INCENP complex activity
[3] = Clearance in rat; type: ADME, organism-based; conditions: in vivo
SW-620 [4] = assay: Antiproliferative activity against human colorectal carcinoma SW620 cells
[5] = target: Cyclin-dependent kinase 2 (Homo sapiens, UniProt P24941); assay: Inhibitory activity against CDK2
[6] = target: Vascular endothelial growth factor receptor 2 (Homo sapiens, UniProt P35968); assay: Inhibitory activity against KDR
Focal adhesion kinase 1 = Focal adhesion kinase 1 (Homo sapiens, UniProt Q05397); assay: Inhibitory activity against FAK
[7] = target: Insulin-like growth factor 1 receptor (Homo sapiens, UniProt P08069); assay: Inhibitory activity against IGFR
[8] = target: Fibroblast growth factor receptor (Homo sapiens, UniProt P22607+P11362+P22455+P21802); assay: Inhibitory activity against FGFR; type: protein assay
[9] = Distribution coefficient of the compound, log D at pH 7.4; type: physicochemical; conditions: octanol/water
[10] = target: Tyrosine-protein kinase CSK (Homo sapiens, UniProt P41240); assay: Inhibitory activity against CSK
[11] = Free drug level in rat serum albumin; type: ADME, organism-based
[12] = Half life in rat; type: ADME, organism-based; conditions: in vivo
[13] = target: Proto-oncogene tyrosine-protein kinase Src (Homo sapiens, UniProt P12931); assay: Inhibitory activity against SRC
[14] = target: Mitogen-activated protein kinase 14 (Homo sapiens, UniProt Q16539); assay: Inhibitory activity against p38-alpha MAPK
[15] = Solubility in phosphate buffer at pH 7.4, 25 degC; type: physicochemical
[16] = target: T2, Tyrosine-protein kinase JAK3 (Homo sapiens, UniProt P52333); assay: Inhibitory activity against JAK3
T2 sequence (P52333 whole entry): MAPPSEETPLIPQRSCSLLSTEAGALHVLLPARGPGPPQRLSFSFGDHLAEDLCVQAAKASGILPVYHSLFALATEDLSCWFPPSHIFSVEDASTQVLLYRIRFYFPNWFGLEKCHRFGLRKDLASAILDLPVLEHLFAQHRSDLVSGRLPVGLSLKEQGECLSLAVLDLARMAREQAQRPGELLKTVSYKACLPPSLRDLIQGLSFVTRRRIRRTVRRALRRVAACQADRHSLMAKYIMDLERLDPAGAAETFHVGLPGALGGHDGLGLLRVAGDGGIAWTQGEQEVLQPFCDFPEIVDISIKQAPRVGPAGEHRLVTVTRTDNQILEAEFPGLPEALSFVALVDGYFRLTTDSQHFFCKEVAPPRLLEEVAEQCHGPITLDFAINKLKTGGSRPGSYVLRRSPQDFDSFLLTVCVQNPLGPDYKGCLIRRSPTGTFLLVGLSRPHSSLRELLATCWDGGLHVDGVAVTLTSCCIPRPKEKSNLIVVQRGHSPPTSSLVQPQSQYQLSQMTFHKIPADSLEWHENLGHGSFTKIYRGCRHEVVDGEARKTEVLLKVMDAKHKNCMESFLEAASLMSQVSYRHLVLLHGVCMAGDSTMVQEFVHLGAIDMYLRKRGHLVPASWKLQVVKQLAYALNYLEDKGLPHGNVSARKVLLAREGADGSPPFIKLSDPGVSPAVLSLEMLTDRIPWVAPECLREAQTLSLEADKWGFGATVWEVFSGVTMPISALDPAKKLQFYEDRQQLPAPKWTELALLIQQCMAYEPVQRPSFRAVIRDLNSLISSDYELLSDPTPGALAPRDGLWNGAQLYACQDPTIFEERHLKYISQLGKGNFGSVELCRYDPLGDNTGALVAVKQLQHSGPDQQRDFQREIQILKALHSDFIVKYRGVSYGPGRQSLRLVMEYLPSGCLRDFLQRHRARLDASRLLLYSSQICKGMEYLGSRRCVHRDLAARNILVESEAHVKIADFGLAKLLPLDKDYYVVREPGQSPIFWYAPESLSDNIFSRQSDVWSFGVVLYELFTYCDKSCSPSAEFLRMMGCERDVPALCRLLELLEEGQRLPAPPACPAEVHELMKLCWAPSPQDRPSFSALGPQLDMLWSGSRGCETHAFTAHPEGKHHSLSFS

[17] = Volume of distribution in rat; type: ADME, organism-based; conditions: in vivo, read-out: Vdss
[18] = target: cAMP-dependent protein kinase (PKA) (Homo sapiens, UniProt P22694+P17612+P22612); assay: Inhibitory activity against PKA; type: protein assay
[19] = target: Mitogen-activated protein kinase 8 (Homo sapiens, UniProt P45983); assay: Inhibitory activity against JNK1alpha
Aurora kinase B = Aurora kinase B (Homo sapiens, UniProt Q96GD4); assay: Inhibition of Aurora-B immunoprecipitated from mitotic cells; type: functional
Mus musculus = species on record: Mus musculus; assay: Conversion to parent, N-(3-fluorophenyl)-2-{2-[(7-{3 -[4-(hydroxymethyl)piperidin-1 -yl]propoxy}-6-methoxyquinazol in-4-yl)amino]-1,3-thiazol-5-y l}acetamide in mouse plasma; type: ADME, organism-based; conditions: in vivo
[20] = Solubility in Tris buffer at pH 9.0, 25 degC; type: physicochemical

Sequence of Vascular endothelial growth factor receptor 2 (P35968 whole entry): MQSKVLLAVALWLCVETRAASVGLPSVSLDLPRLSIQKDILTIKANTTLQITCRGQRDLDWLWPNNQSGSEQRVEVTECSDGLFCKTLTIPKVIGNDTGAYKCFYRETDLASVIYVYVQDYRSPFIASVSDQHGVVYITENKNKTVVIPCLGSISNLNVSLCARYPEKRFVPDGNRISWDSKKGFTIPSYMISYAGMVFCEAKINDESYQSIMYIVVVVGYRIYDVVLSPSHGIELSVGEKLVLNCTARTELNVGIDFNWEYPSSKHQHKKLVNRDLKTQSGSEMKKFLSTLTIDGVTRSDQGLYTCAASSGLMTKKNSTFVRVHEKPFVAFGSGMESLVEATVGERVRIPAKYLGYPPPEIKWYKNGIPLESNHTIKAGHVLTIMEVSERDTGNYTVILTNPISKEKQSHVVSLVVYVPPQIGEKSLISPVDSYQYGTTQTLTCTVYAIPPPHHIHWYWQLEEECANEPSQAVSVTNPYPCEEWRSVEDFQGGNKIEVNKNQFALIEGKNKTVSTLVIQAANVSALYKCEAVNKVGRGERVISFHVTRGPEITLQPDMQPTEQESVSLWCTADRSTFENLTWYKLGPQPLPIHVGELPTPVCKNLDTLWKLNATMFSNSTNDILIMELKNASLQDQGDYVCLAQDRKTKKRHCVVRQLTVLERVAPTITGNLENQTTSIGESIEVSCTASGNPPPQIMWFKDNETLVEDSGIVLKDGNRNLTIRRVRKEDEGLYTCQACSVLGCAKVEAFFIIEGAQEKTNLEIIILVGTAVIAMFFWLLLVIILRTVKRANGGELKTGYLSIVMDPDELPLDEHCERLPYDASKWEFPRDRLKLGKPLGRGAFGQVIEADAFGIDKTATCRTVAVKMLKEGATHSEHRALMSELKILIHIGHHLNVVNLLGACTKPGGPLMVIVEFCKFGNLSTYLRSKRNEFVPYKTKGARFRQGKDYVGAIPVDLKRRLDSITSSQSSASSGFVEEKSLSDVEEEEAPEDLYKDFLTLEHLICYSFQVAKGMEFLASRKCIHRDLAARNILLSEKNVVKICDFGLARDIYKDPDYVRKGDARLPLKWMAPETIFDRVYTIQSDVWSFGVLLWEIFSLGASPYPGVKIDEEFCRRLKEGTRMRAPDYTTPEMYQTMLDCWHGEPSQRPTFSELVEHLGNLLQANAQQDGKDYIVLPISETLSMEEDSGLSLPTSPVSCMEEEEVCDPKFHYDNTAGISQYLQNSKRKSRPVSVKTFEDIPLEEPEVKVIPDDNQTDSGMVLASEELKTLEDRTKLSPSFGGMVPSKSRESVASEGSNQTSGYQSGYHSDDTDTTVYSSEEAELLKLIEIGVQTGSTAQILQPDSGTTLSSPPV
Sequence of Tyrosine-protein kinase CSK (P41240 whole entry): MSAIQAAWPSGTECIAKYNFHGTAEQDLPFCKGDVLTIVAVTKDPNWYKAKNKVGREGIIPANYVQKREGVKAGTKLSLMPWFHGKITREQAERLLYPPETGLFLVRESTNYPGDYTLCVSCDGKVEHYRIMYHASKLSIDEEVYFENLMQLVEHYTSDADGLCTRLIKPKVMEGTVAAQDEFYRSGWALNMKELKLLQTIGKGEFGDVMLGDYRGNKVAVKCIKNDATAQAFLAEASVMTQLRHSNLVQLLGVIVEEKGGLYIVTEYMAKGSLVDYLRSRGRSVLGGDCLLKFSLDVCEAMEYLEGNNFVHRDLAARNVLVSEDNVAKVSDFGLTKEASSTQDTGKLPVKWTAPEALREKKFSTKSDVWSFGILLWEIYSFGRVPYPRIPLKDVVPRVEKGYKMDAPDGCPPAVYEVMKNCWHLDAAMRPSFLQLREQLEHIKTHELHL
Sequence of Proto-oncogene tyrosine-protein kinase Src (P12931 2-536 limits assumed): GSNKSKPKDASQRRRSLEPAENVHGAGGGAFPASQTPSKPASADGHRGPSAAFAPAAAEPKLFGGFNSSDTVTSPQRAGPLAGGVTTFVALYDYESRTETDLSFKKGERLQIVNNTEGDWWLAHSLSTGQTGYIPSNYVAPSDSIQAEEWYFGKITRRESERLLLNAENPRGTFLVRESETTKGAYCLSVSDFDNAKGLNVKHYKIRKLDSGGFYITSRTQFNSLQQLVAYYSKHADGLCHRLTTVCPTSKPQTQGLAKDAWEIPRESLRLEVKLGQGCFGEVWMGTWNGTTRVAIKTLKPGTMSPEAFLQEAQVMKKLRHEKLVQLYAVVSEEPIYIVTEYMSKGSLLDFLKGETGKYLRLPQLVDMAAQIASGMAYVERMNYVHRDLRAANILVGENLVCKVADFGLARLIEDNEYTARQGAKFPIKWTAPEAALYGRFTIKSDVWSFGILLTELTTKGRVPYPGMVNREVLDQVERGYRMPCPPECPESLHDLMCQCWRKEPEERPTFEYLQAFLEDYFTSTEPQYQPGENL
Sequence of Focal adhesion kinase 1 (Q05397 whole entry): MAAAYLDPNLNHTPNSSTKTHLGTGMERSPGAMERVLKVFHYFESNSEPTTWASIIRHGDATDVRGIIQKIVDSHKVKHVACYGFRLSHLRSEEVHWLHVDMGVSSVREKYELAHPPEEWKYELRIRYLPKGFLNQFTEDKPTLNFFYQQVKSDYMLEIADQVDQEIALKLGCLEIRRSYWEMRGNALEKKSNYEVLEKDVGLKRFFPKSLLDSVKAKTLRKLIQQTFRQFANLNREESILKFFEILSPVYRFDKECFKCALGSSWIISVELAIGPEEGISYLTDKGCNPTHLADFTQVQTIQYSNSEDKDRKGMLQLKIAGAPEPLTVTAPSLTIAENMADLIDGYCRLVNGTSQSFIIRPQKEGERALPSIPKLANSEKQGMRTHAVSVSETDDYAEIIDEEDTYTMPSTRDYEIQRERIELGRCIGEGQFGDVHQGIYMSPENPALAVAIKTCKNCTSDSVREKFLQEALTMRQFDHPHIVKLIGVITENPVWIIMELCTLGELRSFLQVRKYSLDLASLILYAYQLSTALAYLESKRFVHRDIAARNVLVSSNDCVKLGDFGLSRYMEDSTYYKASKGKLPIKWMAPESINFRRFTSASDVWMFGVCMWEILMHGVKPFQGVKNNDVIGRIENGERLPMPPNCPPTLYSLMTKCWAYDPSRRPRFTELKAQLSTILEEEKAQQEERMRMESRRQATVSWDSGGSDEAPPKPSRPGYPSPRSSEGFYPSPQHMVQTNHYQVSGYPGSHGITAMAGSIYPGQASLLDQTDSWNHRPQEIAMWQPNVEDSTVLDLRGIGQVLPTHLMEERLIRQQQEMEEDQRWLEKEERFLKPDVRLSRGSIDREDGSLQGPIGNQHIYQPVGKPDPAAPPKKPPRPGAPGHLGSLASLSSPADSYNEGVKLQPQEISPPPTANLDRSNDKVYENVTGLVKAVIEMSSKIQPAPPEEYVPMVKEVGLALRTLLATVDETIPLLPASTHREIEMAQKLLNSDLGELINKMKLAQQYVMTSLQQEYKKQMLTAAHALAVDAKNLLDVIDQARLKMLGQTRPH
Sequence of Aurora kinase B (Q96GD4 whole entry): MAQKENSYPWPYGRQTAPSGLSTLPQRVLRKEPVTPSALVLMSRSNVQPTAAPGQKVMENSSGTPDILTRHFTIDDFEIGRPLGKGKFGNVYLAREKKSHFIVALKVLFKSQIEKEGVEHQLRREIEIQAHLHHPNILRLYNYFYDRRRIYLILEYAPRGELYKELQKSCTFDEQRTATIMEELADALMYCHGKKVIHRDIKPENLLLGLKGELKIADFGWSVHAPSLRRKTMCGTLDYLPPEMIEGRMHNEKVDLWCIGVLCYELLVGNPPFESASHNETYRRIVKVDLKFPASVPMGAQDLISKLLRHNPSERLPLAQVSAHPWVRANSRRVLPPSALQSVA
Sequence of Mitogen-activated protein kinase 8 (P45983 whole entry): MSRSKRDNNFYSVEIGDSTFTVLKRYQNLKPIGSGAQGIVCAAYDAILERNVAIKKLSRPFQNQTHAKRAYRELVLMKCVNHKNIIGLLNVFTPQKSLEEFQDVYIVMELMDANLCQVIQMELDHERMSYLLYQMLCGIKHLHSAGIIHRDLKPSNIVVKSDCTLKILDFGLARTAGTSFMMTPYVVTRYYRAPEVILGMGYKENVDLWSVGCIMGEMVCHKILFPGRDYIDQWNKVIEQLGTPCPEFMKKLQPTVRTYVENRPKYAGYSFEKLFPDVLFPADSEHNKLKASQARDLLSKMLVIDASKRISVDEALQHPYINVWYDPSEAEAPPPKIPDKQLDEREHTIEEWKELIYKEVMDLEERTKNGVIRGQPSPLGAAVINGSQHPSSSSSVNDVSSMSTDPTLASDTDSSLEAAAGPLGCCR
Sequence of Mitogen-activated protein kinase 14 (Q16539 whole entry): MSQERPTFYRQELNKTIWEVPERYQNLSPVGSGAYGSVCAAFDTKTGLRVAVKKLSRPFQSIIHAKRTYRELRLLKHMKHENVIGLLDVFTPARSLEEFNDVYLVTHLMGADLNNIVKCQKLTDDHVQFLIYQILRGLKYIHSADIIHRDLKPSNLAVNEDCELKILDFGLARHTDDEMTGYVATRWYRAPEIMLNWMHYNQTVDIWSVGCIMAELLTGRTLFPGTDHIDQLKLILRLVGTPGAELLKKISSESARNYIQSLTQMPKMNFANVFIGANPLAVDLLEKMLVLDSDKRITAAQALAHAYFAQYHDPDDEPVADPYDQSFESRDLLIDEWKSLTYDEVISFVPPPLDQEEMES

COc1cc2c(Nc3ncc(SCc4cccc(F)c4)s3)ncnc2cc1OCCCN1CCC(CO)CC1
IC50 (SW-620 [1]): 400 nM | IC50 (Aurora kinase A): < 1 nM | IC50 [2]: < 1 nM

CCN(CCO)CCCOc1cc2ncnc(Nc3ncc(CC(=O)Nc4cccc(F)c4)s3)c2cc1OC
IC50 (SW-620 [1]): < 1 nM | IC50 (Aurora kinase A): < 1 nM | IC50 [2]: < 1 nM

COc1cc2c(Nc3ncc(Oc4cccc(F)c4)s3)ncnc2cc1OCCCN1CCC(CO)CC1
IC50 (SW-620 [1]): 200 nM | IC50 [2]: < 1 nM

COc1cc2c(Nc3nc(CC(=O)Nc4cccc(F)c4)cs3)ncnc2cc1OCCCN1CCOCC1
IC50 (SW-620 [1]): 200 nM | IC50 (Aurora kinase A): 578 nM | IC50 [2]: 12 nM

COCCOc1cc2ncnc(Nc3ncc(CC(=O)Nc4cccc(F)c4)s3)c2cc1OC
IC50 (SW-620 [1]): 10 nM | IC50 (Aurora kinase A): 1 nM | IC50 [2]: 8 nM

COc1cc2c(Nc3ncc(CC(=O)Nc4cccc(F)c4F)s3)ncnc2cc1OCCCN1CCC[C@H]1CO
IC50 (SW-620 [1]): 1 nM | IC50 (Aurora kinase A): 2 nM

COc1cc2c(Nc3ncc(CC(=O)Nc4cccc(N(C)C)c4)s3)ncnc2cc1OCCCN1CCC[C@H]1CO
IC50 (SW-620 [1]): 600 nM | IC50 (Aurora kinase A): 483 nM | IC50 [2]: 48 nM

COc1cccc(NC(=O)Cc2cnc(Nc3ncnc4cc(OCCCN5CCC[C@H]5CO)c(OC)cc34)s2)c1
IC50 (SW-620 [1]): 1000 nM | IC50 (Aurora kinase A): 106 nM | IC50 [2]: 5 nM

COc1cc2c(Nc3ncc(CC(=O)Nc4cccc(F)c4)s3)ncnc2cc1OCCCN1CCC[C@H]1CO
IC50 (SW-620 [1]): 4 nM | IC50 (Aurora kinase A): < 1 nM | IC50 [2]: < 1 nM

COc1cc2c(Nc3ncc(CC(=O)Nc4cccc(F)c4)s3)ncnc2cc1OCCN1CCC(CCO)CC1
IC50 (SW-620 [1]): 19 nM | IC50 (Aurora kinase A): < 1 nM | IC50 [2]: < 1 nM

CCN(C(=O)Cc1cnc(Nc2ncnc3cc(OCCCN4CCOCC4)c(OC)cc23)s1)c1ccccc1
IC50 (SW-620 [1]): 2300 nM | IC50 (Aurora kinase A): 55 nM | IC50 [2]: 286 nM

COc1cc2c(Nc3ncc(CNS(=O)(=O)c4cccc(F)c4)s3)ncnc2cc1OCCCN1CCC(CO)CC1
IC50 (SW-620 [1]): 800 nM | IC50 (Aurora kinase A): 12 nM | IC50 [2]: 28 nM

COc1cc2c(Nc3ncc(CC(=O)NCCC(C)C)s3)ncnc2cc1OCCCN1CCOCC1
IC50 (SW-620 [1]): 400 nM | IC50 (Aurora kinase A): 158 nM | IC50 [2]: 5 nM

COc1cc2c(Nc3ncc(CC(=O)Nc4cccc(F)c4)o3)ncnc2cc1OCCCN1CCOCC1
IC50 (SW-620 [1]): 1000 nM | IC50 (Aurora kinase A): 472 nM | IC50 [2]: 341 nM

COc1cc2c(Nc3nc(C(=O)Nc4ccc(F)cc4)c[nH]3)ncnc2cc1OCCCN1CCOCC1
IC50 (SW-620 [1]): > 10000 nM | IC50 (Aurora kinase A): > 1000 nM | IC50 [2]: > 1000 nM

COc1cc2c(Nc3ncc(CC(=O)Nc4cccc(F)c4)s3)ncnc2cc1OCCCN1CCC(CO)CC1
IC50 (SW-620 [1]): 5 nM | clearance [3]: 16.6 mL/min/kg | IC50 (SW-620 [4]): 2 nM | IC50 [5]: 62000 nM | IC50 [6]: 1000 nM | IC50 (Focal adhesion kinase 1): 4000 nM | IC50 [7]: 13000 nM | IC50 [8]: 8000 nM | logD [9]: 3.2 | IC50 [10]: 21000 nM | fraction unbound [11]: 0.024 | half-life [12]: 5 h | IC50 [13]: 3000 nM | IC50 [14]: > 100000 nM | solubility [15]: 35 µg/mL (≈ 0.0603 mM) | IC50 [16]: 25000 nM | Vd [17]: 1.8 L/kg | IC50 [18]: > 100000 nM | IC50 [19]: > 100000 nM | IC50 [2]: 7 nM

CCCCc1cnc(Nc2ncnc3cc(OCCCN4CCOCC4)c(OC)cc23)s1
IC50 (SW-620 [1]): 1900 nM | IC50 (Aurora kinase A): 6 nM | IC50 [2]: 63 nM

COc1cc2c(Nc3ncc(C)s3)ncnc2cc1OCCCN1CCOCC1
IC50 (SW-620 [1]): 1100 nM | IC50 (Aurora kinase A): 43 nM | IC50 [2]: 133 nM

COc1cc2c(Nc3ncc(CNC(=O)c4cccc(F)c4)s3)ncnc2cc1OCCCN1CCC(CO)CC1
IC50 (SW-620 [1]): 2800 nM | IC50 (Aurora kinase A): 111 nM | IC50 [2]: 136 nM

COc1cc2c(Nc3ncc(CC(=O)Nc4cccc(F)c4)s3)ncnc2cc1OCCCN1CCN(C)CC1
IC50 (SW-620 [1]): 2 nM | IC50 (Aurora kinase A): < 1 nM | IC50 [2]: < 1 nM

CCS(=O)(=O)Nc1ccc2c(c1)/C(=C(/Nc1ccc(CN3CCCCC3)cc1)c1ccccc1)C(=O)N2 [HESPERADIN]
IC50 (Aurora kinase B): 250 nM

COc1cc2c(Nc3ncc(CC(=O)Nc4ccccc4C(N)=O)s3)ncnc2cc1OCCCN1CCC[C@H]1CO
IC50 (SW-620 [1]): > 10000 nM | IC50 (Aurora kinase A): 452 nM | IC50 [2]: 282 nM

C#CCN(CCO)CCCOc1cc2ncnc(Nc3ncc(CC(=O)Nc4cccc(F)c4)s3)c2cc1OC
IC50 (SW-620 [1]): 20 nM | IC50 (Aurora kinase A): < 1 nM | IC50 [2]: < 1 nM

COc1cc2c(Nc3ncc(CC(=O)Nc4cccc(F)c4)s3)ncnc2cc1OCCCN1CCOCC1
IC50 (SW-620 [1]): < 1 nM | IC50 (Aurora kinase A): < 1 nM | IC50 [2]: < 1 nM

COc1cc2c(Nc3ncc(CC(=O)Nc4cccc(F)c4)s3)ncnc2cc1OCCCNCCO
IC50 (SW-620 [1]): 80 nM | IC50 [2]: 1 nM

COc1cc2c(Nc3ncc(CC(=O)Nc4cccc(F)c4)s3)ncnc2cc1OCCCN1CCC(COP(=O)(O)O)CC1
T1/2 (Mus musculus): 0.7 h | solubility [20]: 10000 µg/mL (≈ 15.1 mM)

COc1cc2c(Nc3ncc(C(=O)Nc4ccc(F)cc4)s3)ncnc2cc1OCCCN1CCOCC1
IC50 (SW-620 [1]): 600 nM | IC50 (Aurora kinase A): 1 nM | IC50 [2]: 49 nM
